Experiment: Particle size of unmilled and jet milled Compound X (optical microscopy, Microtrac, Aerosizer, SEM)
Format: physicochemical
Text: In the studies described below the aerosol performance of micronized Compound X with three different grades of lactose made specifically for inhalation in an Spinhaler® is compared. The carriers studied were milled lactose for inhalation (Respitose™ ML003), sieved lactose for inhalation (Respitose SV003) and granulated lactose for inhalation (Respitose LS243). Each carrier was characterized for particle size, flow properties and morphology. Jet milled Compound X, with an average particle size of 2.8 microns was used in the studies. […] Blends were manufactured with 4% w/w drug loading at a scale of 1 g. Capsules were then filled with 25 mg of blend to achieve a 1 mg nominal dose. Each blend was characterized for blend uniformity, dose uniformity and aerodynamic particle size distribution. Granulated lactose produced the weakest drug aerosolization compared to milled and sieved lactose. […] The delivered shot weight was 92% of target with an in-vitro respirable fraction of 26% and an emitted dose of 34%. The formulation is considered appropriate for animal model studies use however optimization of the formulation and the blending characteristics will be pursued following results from the in-vivo animal studies. Three jet milled samples of Compound X observed using X-ray powder diffraction (XRPD) and thermogravimetry (TGA) that the jet milled samples had similar properties to the unmilled lots. The samples retained their crystalline form. By SEM, it was observed that the jet milled drug was smaller in particle size compared to the unmilled drug, while maintaining the needle-like morphology. Drug particle size ranged from ca. 2-25 μm in length and ca. 2 μm in width with agglomerates up to 50 μm in diameter. Only one of the jet milled lots was used for the described studies below.

Drug particle size, length (SEM, jet milled): 2-25 μm
Drug particle size, width (SEM, jet milled): ca. 2 μm
agglomerates, diameter (SEM, jet milled): up to 50 μm
average particle size (jet milled drug used in the studies): 2.8 microns
SMILES: O=C(NC1CC1)c1cn(-c2cccc(C#Cc3ccc[n+]([O-])c3)c2)c2ncccc2c1=O [Milled API, N-cyclopropyl-1-[3-(1-oxido-3-pyridinylethynyl)phenyl]-1,4-dihydro[1,8]naphthyridin-4-one-3-carboxamide]
